Test results as given in the NIST ThermoML archive (doi:10.1021/je900210h).
Values joined by “and” are separate entries in the source; they are usually repeats but may differ in a detail not shown here. Equal entries are not always repeated.

Conditions: Fluid (supercritical or subcritical phases), Coaxial cylinder method

FCC(F)(F)F [1,1,1,2-tetrafluoroethane]
Conditions | thermal conductivity
375.76 K, 4223 kPa | 0.0752 W/m/K
375.77 K, 4161 kPa | 0.0731 W/m/K
375.79 K, 4241 kPa | 0.0673 W/m/K
375.8 K, 3504 kPa | 0.029 W/m/K
375.8 K, 4150 kPa | 0.0656 W/m/K
375.81 K, 3534 kPa | 0.0279 W/m/K
375.82 K, 4254 kPa | 0.0627 W/m/K
375.83 K, 4141 kPa | 0.06 W/m/K
375.84 K, 4279 kPa | 0.0589 W/m/K
375.85 K, 4296 kPa | 0.0573 W/m/K
375.86 K, 4316 kPa | 0.0558 W/m/K
375.86 K, 4334 kPa | 0.0551 W/m/K
375.87 K, 3165 kPa | 0.0261 W/m/K
375.87 K, 3264 kPa | 0.0264 W/m/K
375.87 K, 4132 kPa | 0.0548 W/m/K
375.87 K, 4349 kPa | 0.0546 W/m/K
375.87 K, 4363 kPa | 0.0539 W/m/K
375.88 K, 4387 kPa | 0.0535 W/m/K
375.88 K, 4432 kPa | 0.0526 W/m/K
375.88 K, 4461 kPa | 0.0526 W/m/K and 0.0524 W/m/K
375.89 K, 4451 kPa | 0.0521 W/m/K
375.89 K, 4630 kPa | 0.052 W/m/K
375.9 K, 2970 kPa | 0.0251 W/m/K
375.92 K, 4120 kPa | 0.0485 W/m/K
375.93 K, 2700 kPa | 0.0265 W/m/K
375.94 K, 2662 kPa | 0.024 W/m/K
375.95 K, 2429 kPa | 0.0235 W/m/K
375.95 K, 3993 kPa | 0.0374 W/m/K
375.99 K, 3936 kPa | 0.0349 W/m/K
375.99 K, 4072 kPa | 0.0417 W/m/K
376.01 K, 3908 kPa | 0.034 W/m/K
376.02 K, 4205 kPa | 0.0817 W/m/K
376.02 K, 4207 kPa | 0.0822 W/m/K
376.02 K, 4209 kPa | 0.0826 W/m/K
376.02 K, 4213 kPa | 0.0826 W/m/K
376.02 K, 4217 kPa | 0.0821 W/m/K
376.03 K, 4203 kPa | 0.0807 W/m/K
376.03 K, 4222 kPa | 0.0806 W/m/K
376.03 K, 4225 kPa | 0.0797 W/m/K
376.04 K, 1048 kPa | 0.0214 W/m/K
376.04 K, 4039 kPa | 0.0379 W/m/K
376.04 K, 4200 kPa | 0.0784 W/m/K
376.04 K, 4230 kPa | 0.0774 W/m/K
376.04 K, 4233 kPa | 0.0766 W/m/K
376.05 K, 773 kPa | 0.0212 W/m/K
376.05 K, 4198 kPa | 0.0754 W/m/K
376.06 K, 524 kPa | 0.0208 W/m/K
376.06 K, 4011 kPa | 0.0362 W/m/K
376.06 K, 4242 kPa | 0.0737 W/m/K
376.07 K, 200 kPa | 0.0205 W/m/K
376.07 K, 4190 kPa | 0.0693 W/m/K
376.07 K, 4250 kPa | 0.0708 W/m/K
376.08 K, 3975 kPa | 0.0352 W/m/K
376.08 K, 4260 kPa | 0.0686 W/m/K
376.09 K, 4270 kPa | 0.0669 W/m/K
376.09 K, 4280 kPa | 0.0656 W/m/K
376.1 K, 3941 kPa | 0.0342 W/m/K
376.1 K, 4180 kPa | 0.0622 W/m/K
376.1 K, 4300 kPa | 0.0638 W/m/K
376.11 K, 3913 kPa | 0.0333 W/m/K
376.11 K, 4320 kPa | 0.0624 W/m/K
376.14 K, 5520 kPa | 0.054 W/m/K
376.14 K, 5651 kPa | 0.0543 W/m/K
376.14 K, 5740 kPa | 0.0545 W/m/K
376.15 K, 4789 kPa | 0.0527 W/m/K
376.15 K, 5037 kPa | 0.0529 W/m/K
376.15 K, 5092 kPa | 0.0531 W/m/K
376.15 K, 5216 kPa | 0.0534 W/m/K
376.15 K, 5296 kPa | 0.0536 W/m/K
376.16 K, 4754 kPa | 0.0523 W/m/K
376.19 K, 4160 kPa | 0.0503 W/m/K
376.21 K, 3800 kPa | 0.0312 W/m/K
376.21 K, 4150 kPa | 0.048 W/m/K
376.23 K, 2350 kPa | 0.0256 W/m/K
376.23 K, 3734 kPa | 0.0301 W/m/K
376.26 K, 4264 kPa | 0.081 W/m/K
376.26 K, 4360 kPa | 0.0608 W/m/K
376.26 K, 4390 kPa | 0.06 W/m/K
376.27 K, 4230 kPa | 0.0811 W/m/K
376.28 K, 4218 kPa | 0.0789 W/m/K
376.28 K, 4267 kPa | 0.0803 W/m/K
376.29 K, 4214 kPa | 0.078 W/m/K
376.29 K, 4279 kPa | 0.0786 W/m/K
376.31 K, 4210 kPa | 0.077 W/m/K
376.33 K, 3030 kPa | 0.0242 W/m/K
376.34 K, 4199 kPa | 0.074 W/m/K
376.34 K, 4305 kPa | 0.0746 W/m/K
376.38 K, 2200 kPa | 0.0252 W/m/K
376.38 K, 4192 kPa | 0.0712 W/m/K
376.4 K, 3872 kPa | 0.0323 W/m/K
376.41 K, 3872 kPa | 0.0317 W/m/K
376.41 K, 4184 kPa | 0.0684 W/m/K
376.42 K, 3872 kPa | 0.0315 W/m/K
376.44 K, 3783 kPa | 0.0303 W/m/K
376.44 K, 4178 kPa | 0.0661 W/m/K
376.44 K, 4354 kPa | 0.0663 W/m/K
376.46 K, 3783 kPa | 0.0297 W/m/K
376.48 K, 3675 kPa | 0.0288 W/m/K
376.48 K, 4174 kPa | 0.0639 W/m/K
376.5 K, 3593 kPa | 0.0281 W/m/K
376.51 K, 2527 kPa | 0.0229 W/m/K
376.51 K, 3504 kPa | 0.0275 W/m/K
376.51 K, 4168 kPa | 0.0618 W/m/K
376.52 K, 4404 kPa | 0.0612 W/m/K
376.53 K, 3468 kPa | 0.0269 W/m/K
376.54 K, 4470 kPa | 0.059 W/m/K
376.54 K, 4580 kPa | 0.0586 W/m/K
376.55 K, 3302 kPa | 0.0263 W/m/K
376.55 K, 4165 kPa | 0.0598 W/m/K
376.56 K, 3210 kPa | 0.0257 W/m/K
376.57 K, 4451 kPa | 0.0587 W/m/K
376.58 K, 4158 kPa | 0.0579 W/m/K
376.59 K, 3210 kPa | 0.0248 W/m/K
376.6 K, 3210 kPa | 0.0246 W/m/K
376.61 K, 3210 kPa | 0.0244 W/m/K
376.61 K, 4150 kPa | 0.0562 W/m/K
376.65 K, 4147 kPa | 0.0545 W/m/K
376.68 K, 4141 kPa | 0.0524 W/m/K
376.68 K, 4680 kPa | 0.0583 W/m/K
376.69 K, 4140 kPa | 0.0427 W/m/K
376.73 K, 4100 kPa | 0.0395 W/m/K
376.78 K, 4040 kPa | 0.0364 W/m/K
376.81 K, 3990 kPa | 0.0346 W/m/K
376.82 K, 4117 kPa | 0.047 W/m/K
376.82 K, 4820 kPa | 0.0577 W/m/K
376.82 K, 4860 kPa | 0.0575 W/m/K
376.87 K, 3880 kPa | 0.0318 W/m/K
376.87 K, 4101 kPa | 0.0452 W/m/K
376.87 K, 4504 kPa | 0.0571 W/m/K
376.89 K, 4548 kPa | 0.0562 W/m/K
376.9 K, 3800 kPa | 0.0304 W/m/K
376.92 K, 3740 kPa | 0.0295 W/m/K
376.95 K, 3650 kPa | 0.0285 W/m/K
376.96 K, 2027 kPa | 0.0218 W/m/K
376.98 K, 3510 kPa | 0.0274 W/m/K
377.01 K, 4289 kPa | 0.072 W/m/K
377.01 K, 4294 kPa | 0.0724 W/m/K
377.01 K, 4307 kPa | 0.0724 W/m/K
377.01 K, 4309 kPa | 0.072 W/m/K
377.01 K, 4312 kPa | 0.0717 W/m/K
377.02 K, 4322 kPa | 0.0706 W/m/K
377.02 K, 4332 kPa | 0.0691 W/m/K
377.03 K, 4343 kPa | 0.0674 W/m/K
377.04 K, 4356 kPa | 0.0661 W/m/K
377.05 K, 4380 kPa | 0.0636 W/m/K
377.05 K, 4384 kPa | 0.0634 W/m/K
377.06 K, 4397 kPa | 0.0625 W/m/K
377.06 K, 4417 kPa | 0.0617 W/m/K
377.07 K, 4439 kPa | 0.0606 W/m/K
377.07 K, 4473 kPa | 0.06 W/m/K
377.08 K, 4495 kPa | 0.0595 W/m/K
377.08 K, 4538 kPa | 0.0587 W/m/K
377.17 K, 4275 kPa | 0.0671 W/m/K
377.18 K, 4270 kPa | 0.0648 W/m/K
377.19 K, 4266 kPa | 0.063 W/m/K
377.24 K, 4249 kPa | 0.0555 W/m/K
377.26 K, 4241 kPa | 0.0529 W/m/K
377.27 K, 4235 kPa | 0.0513 W/m/K
377.29 K, 4226 kPa | 0.0494 W/m/K
377.32 K, 4211 kPa | 0.0466 W/m/K
377.36 K, 4613 kPa | 0.0583 W/m/K
377.36 K, 4653 kPa | 0.0578 W/m/K
377.36 K, 4697 kPa | 0.0578 W/m/K
377.36 K, 4760 kPa | 0.0576 W/m/K
377.37 K, 4836 kPa | 0.0569 W/m/K
377.37 K, 4907 kPa | 0.0562 W/m/K
377.51 K, 4164 kPa | 0.0415 W/m/K
377.55 K, 4126 kPa | 0.039 W/m/K
377.58 K, 4079 kPa | 0.0366 W/m/K
377.73 K, 4701 kPa | 0.055 W/m/K
377.83 K, 4369 kPa | 0.0678 W/m/K
377.83 K, 4381 kPa | 0.0681 W/m/K
377.83 K, 4390 kPa | 0.0681 W/m/K
377.83 K, 4400 kPa | 0.0678 W/m/K
377.84 K, 4360 kPa | 0.0668 W/m/K
377.84 K, 4411 kPa | 0.0668 W/m/K
377.84 K, 4420 kPa | 0.0658 W/m/K
377.85 K, 4351 kPa | 0.0652 W/m/K
377.85 K, 4432 kPa | 0.0652 W/m/K
377.85 K, 4441 kPa | 0.064 W/m/K
377.86 K, 4451 kPa | 0.0631 W/m/K
377.86 K, 4460 kPa | 0.0623 W/m/K
377.86 K, 4997 kPa | 0.0548 W/m/K
